Target: Cav3.2 (Homo sapiens, UniProt O95180)
Assay: Calcium flux FLIPR assay, HEK293 cells recombinantly expressing Cav3.2
Assay type: cell-based
Details: Cav3.2-channel, Ca2+ entry stimulated by 10 mM CaCl2
In short: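 Fluo-4-loaded HEK293 cells stably expressing Cav3.2, seeded overnight at 37 °C; compounds diluted in TEAC buffer (pH 7.2) and preincubated 3 min before Ca2+ entry triggered with CaCl2 at 10 mM final. Area under FLIPR fluorescence trace fitted sigmoidally; IC50 relative to vehicle signal.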

Cav3.2, sequence (O95180 whole entry, looked up): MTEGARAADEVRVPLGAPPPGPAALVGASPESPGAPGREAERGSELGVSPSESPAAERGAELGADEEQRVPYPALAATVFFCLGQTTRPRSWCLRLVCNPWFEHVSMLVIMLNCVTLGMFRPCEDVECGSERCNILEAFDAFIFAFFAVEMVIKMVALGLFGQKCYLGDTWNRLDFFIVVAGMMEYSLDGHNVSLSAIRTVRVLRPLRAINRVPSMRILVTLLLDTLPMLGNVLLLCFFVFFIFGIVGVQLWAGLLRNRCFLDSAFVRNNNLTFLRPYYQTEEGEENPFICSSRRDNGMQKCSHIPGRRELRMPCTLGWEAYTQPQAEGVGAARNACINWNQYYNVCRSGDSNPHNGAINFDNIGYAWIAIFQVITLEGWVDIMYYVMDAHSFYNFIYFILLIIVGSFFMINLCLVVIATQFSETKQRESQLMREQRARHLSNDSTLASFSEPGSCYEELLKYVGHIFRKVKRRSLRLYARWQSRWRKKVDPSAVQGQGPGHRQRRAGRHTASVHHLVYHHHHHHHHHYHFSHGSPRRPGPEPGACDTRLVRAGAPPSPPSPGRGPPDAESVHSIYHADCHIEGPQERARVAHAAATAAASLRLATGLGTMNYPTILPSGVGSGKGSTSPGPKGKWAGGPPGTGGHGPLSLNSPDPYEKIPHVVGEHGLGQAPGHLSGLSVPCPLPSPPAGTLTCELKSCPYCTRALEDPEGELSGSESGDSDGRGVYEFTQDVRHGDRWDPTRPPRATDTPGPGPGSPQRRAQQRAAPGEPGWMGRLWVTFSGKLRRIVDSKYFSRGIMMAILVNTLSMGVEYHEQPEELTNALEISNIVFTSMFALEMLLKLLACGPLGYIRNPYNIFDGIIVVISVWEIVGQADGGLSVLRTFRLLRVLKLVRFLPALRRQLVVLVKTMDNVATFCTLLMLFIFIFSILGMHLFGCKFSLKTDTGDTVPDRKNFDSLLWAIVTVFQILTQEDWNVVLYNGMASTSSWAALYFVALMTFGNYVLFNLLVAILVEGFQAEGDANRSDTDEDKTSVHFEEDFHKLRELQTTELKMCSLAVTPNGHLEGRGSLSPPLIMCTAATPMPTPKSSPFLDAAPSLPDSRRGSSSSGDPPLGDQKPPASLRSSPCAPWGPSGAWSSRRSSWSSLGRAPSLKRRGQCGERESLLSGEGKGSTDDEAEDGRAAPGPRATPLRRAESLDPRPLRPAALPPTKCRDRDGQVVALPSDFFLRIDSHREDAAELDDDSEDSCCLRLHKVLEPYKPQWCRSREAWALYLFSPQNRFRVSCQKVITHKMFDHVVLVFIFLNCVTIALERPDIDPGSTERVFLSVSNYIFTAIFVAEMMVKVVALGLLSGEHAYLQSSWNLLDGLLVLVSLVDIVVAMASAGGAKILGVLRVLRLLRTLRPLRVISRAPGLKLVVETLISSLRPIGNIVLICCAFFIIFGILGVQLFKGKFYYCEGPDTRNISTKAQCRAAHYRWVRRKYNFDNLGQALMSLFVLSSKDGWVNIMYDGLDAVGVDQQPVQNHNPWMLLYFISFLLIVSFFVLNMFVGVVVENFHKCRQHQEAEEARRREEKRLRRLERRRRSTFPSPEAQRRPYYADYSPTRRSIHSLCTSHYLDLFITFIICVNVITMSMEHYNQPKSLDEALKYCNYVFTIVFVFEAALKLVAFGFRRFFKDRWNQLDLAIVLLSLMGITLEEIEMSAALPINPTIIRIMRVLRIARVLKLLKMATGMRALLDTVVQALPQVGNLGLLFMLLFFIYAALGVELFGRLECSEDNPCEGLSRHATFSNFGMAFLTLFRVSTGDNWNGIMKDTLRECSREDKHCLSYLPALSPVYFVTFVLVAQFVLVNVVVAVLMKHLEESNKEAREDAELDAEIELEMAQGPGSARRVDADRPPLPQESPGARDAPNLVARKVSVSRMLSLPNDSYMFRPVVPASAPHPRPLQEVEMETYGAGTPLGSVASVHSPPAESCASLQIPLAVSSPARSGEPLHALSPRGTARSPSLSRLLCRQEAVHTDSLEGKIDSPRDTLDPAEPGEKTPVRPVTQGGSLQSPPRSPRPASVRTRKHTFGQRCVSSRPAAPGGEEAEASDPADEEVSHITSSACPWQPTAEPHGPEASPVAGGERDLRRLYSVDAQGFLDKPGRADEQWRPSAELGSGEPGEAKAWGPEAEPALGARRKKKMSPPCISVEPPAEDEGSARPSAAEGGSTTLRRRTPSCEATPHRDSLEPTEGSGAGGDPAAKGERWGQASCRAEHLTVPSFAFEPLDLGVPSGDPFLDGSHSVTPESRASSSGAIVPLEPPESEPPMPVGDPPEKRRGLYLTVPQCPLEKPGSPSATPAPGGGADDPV

Row | Structure (SMILES) | IC50 [µM]
1 | N#Cc1ccc(Cn2ncc(NC(=O)Cc3cnc(N4CCCC4)c(F)c3)n2)cc1F [Example 161, N-[2-(4-Cyano-3-fluoro-benzyl)-2H-[1,2,3]triazol-4-yl]-2-(5-fluoro-6-pyrrolidin-1-yl-pyridin-3-yl)-acetamide] | 0.025
2 | Cc1cc(Cn2ncc(NC(=O)Cc3ccc(C(C)(C)C)cc3)n2)ccc1C#N [Example 162, 2-(4-tert-Butyl-phenyl)-N-[2-(4-cyano-3-methyl-benzyl)-2H-[1,2,3]triazol-4-yl]-acetamide] | 0.036
3 | Cc1cc(Cn2ncc(NC(=O)Cc3ccc4cnn(C)c4c3)n2)ccc1C#N [Example 163, N-[2-(4-Cyano-3-methyl-benzyl)-2H-[1,2,3]triazol-4-yl]-2-(1-methyl-1H-indazol-6-yl)-acetamide] | 0.33
4 | Cc1cc(Cn2ncc(NC(=O)Cc3ccc4c(cnn4C)c3)n2)ccc1C#N [Example 164, N-[2-(4-Cyano-3-methyl-benzyl)-2H-[1,2,3]triazol-4-yl]-2-(1-methyl-1H-indazol-5-yl)-acetamide] | 0.11
5 | Cc1cc(Cn2ncc(NC(=O)Cc3ccc(C(C)C)cc3)n2)ccc1C#N [Example 165, N-[2-(4-Cyano-3-methyl-benzyl)-2H-[1,2,3]triazol-4-yl]-2-(4-isopropyl-phenyl)-acetamide] | 0.018
6 | Cc1cc(Cn2ncc(NC(=O)Cc3ccc(OC4CC(F)(F)C4)cc3)n2)ccc1C#N [Example 166, N-[2-(4-Cyano-3-methyl-benzyl)-2H-[1,2,3]triazol-4-yl]-2-[4-(3,3-difluoro-cyclobutoxy)-phenyl]-acetamide] | 0.033
7 | Cc1cc(Cn2ncc(NC(=O)Cc3ccc(N4CCC(F)(F)C4)nc3)n2)ccc1C#N [Example 167, N-[2-(4-Cyano-3-methyl-benzyl)-2H-[1,2,3]triazol-4-yl]-2-[6-(3,3-difluoro-pyrrolidin-1-yl)-pyridin-3-yl]-acetamide] | 0.022
8 | CCn1ncc2cc(CC(=O)Nc3cnn(Cc4ccc(C#N)c(C)c4)n3)ccc21 [Example 168, N-[2-(4-Cyano-3-methyl-benzyl)-2H-[1,2,3]triazol-4-yl]-2-(1-ethyl-1H-indazol-5-yl)-acetamide] | 0.04
9 | Cc1cc(Cn2ncc(NC(=O)Cc3ccc4c(c3)c(C)nn4C)n2)ccc1C#N [Example 169, N-[2-(4-Cyano-3-methyl-benzyl)-2H-[1,2,3]triazol-4-yl]-2-(1,3-dimethyl-1H-indazol-5-yl)-acetamide] | 0.096
10 | Cc1cc(Cn2ncc(NC(=O)Cc3ccc(N4CCCC4)nc3)n2)ccc1C#N [Example 170, N-[2-(4-Cyano-3-methyl-benzyl)-2H-[1,2,3]triazol-4-yl]-2-(6-pyrrolidin-1-yl-pyridin-3-yl)-acetamide] | 0.05
11 | Cc1cc(Cn2ncc(NC(=O)Cc3ccc4c(c3)c(C)cn4C)n2)ccc1C#N [Example 171, N-[2-(4-Cyano-3-methyl-benzyl)-2H-[1,2,3]triazol-4-yl]-2-(1,3-dimethyl-1H-indol-5-yl)-acetamide] | 0.022
12 | Cn1ncc2cc(CC(=O)Nc3cnn(Cc4ccc(F)c(C#N)c4)n3)ccc21 [Example 173, N-[2-(3-Cyano-4-fluoro-benzyl)-2H-[1,2,3]triazol-4-yl]-2-(1-methyl-1H-indazol-5-yl)-acetamide] | 0.15
13 | CC(C)c1ccc(CC(=O)Nc2cnn(Cc3ccc(F)c(C#N)c3)n2)cc1 [Example 174, N-[2-(3-Cyano-4-fluoro-benzyl)-2H-[1,2,3]triazol-4-yl]-2-(4-isopropyl-phenyl)-acetamide] | 0.028
14 | N#Cc1ccc(Cn2ncc(NC(=O)Cc3ccc(OCC4(F)COC4)cc3)n2)cc1F [Example 175, N-[2-(4-Cyano-3-fluoro-benzyl)-2H-[1,2,3]triazol-4-yl]-2-[4-(3-fluoro-oxetan-3-ylmethoxy)-phenyl]-acetamide] | 0.1
15 | Cc1nn(C)c2ccc(CC(=O)Nc3cnn(Cc4ccc(C#N)c(F)c4)n3)cc12 [Example 177, N-[2-(4-Cyano-3-fluoro-benzyl)-2H-[1,2,3]triazol-4-yl]-2-(1,3-dimethyl-1H-indazol-5-yl)-acetamide] | 0.033
16 | CC(C)(C)c1ccc(CC(=O)Nc2cnn(Cc3ccc(OC(F)F)c(F)c3)n2)cc1 [Example 178, 2-(4-tert-Butyl-phenyl)-N-[2-(4-difluoromethoxy-3-fluoro-benzyl)-2H-[1,2,3]triazol-4-yl]-acetamide] | 0.049
17 | Cn1ncc2cc(CC(=O)Nc3cnn(Cc4ccc(OC(F)F)c(F)c4)n3)ccc21 [Example 179, N-[2-(4-Difluoromethoxy-3-fluoro-benzyl)-2H-[1,2,3]triazol-4-yl]-2-(1-methyl-1H-indazol-5-yl)-acetamide] | 0.022
18 | CC(C)c1ccc(CC(=O)Nc2cnn(Cc3ccc(OC(F)F)c(F)c3)n2)cc1 [Example 180, N-[2-(4-Difluoromethoxy-3-fluoro-benzyl)-2H-[1,2,3]triazol-4-yl]-2-(4-isopropyl-phenyl)-acetamide] | 0.043

Row | Structure (SMILES) | IC50 [µM]
19 | O=C(Cc1ccc(C2(C(F)(F)F)CC2)cc1)Nc1cnn(Cc2ccc(OC(F)F)c(F)c2)n1 [Example 181, N-[2-(4-Difluoromethoxy-3-fluoro-benzyl)-2H-[1,2,3]triazol-4-yl]-2-[4-(1-trifluoromethyl-cyclopropyl)-phenyl]-acetamide] | 0.086
20 | O=C(Cc1ccc(N2CCC(F)(F)C2)nc1)Nc1cnn(Cc2ccc(OC(F)F)c(F)c2)n1 [Example 182, N-[2-(4-Difluoromethoxy-3-fluoro-benzyl)-2H-[1,2,3]triazol-4-yl]-2-[6-(3,3-difluoro-pyrrolidin-1-yl)-pyridin-3-yl]-acetamide] | 0.013
21 | O=C(Cc1ccc(N2CCCC2)nc1)Nc1cnn(Cc2ccc(OC(F)F)c(F)c2)n1 [Example 183, N-[2-(4-Difluoromethoxy-3-fluoro-benzyl)-2H-[1,2,3]triazol-4-yl]-2-(6-pyrrolidin-1-yl-pyridin-3-yl)-acetamide] | 0.026
22 | CC(C)(C)c1ccc(CC(=O)Nc2cnn(Cc3ccc(OC(F)(F)F)c(F)c3)n2)cc1 [Example 184, 2-(4-tert-Butyl-phenyl)-N-[2-(3-fluoro-4-trifluoromethoxy-benzyl)-2H-[1,2,3]triazol-4-yl]-acetamide] | 0.083
23 | Cn1ncc2ccc(CC(=O)Nc3cnn(Cc4ccc(OC(F)(F)F)c(F)c4)n3)cc21 [Example 185, N-[2-(3-Fluoro-4-trifluoromethoxy-benzyl)-2H-[1,2,3]triazol-4-yl]-2-(1-methyl-1H-indazol-6-yl)-acetamide] | 0.017
24 | Cn1ncc2cc(CC(=O)Nc3cnn(Cc4ccc(OC(F)(F)F)c(F)c4)n3)ccc21 [Example 186, N-[2-(3-Fluoro-4-trifluoromethoxy-benzyl)-2H-[1,2,3]triazol-4-yl]-2-(1-methyl-1H-indazol-5-yl)-acetamide] | 0.0088
25 | CC(C)c1ccc(CC(=O)Nc2cnn(Cc3ccc(OC(F)(F)F)c(F)c3)n2)cc1 [Example 187, N-[2-(3-Fluoro-4-trifluoromethoxy-benzyl)-2H-[1,2,3]triazol-4-yl]-2-(4-isopropyl-phenyl)-acetamide] | 0.065
26 | O=C(Cc1ccc(C2(C(F)(F)F)CC2)cc1)Nc1cnn(Cc2ccc(OC(F)(F)F)c(F)c2)n1 [Example 188, N-[2-(3-Fluoro-4-trifluoromethoxy-benzyl)-2H-[1,2,3]triazol-4-yl]-2-[4-(1-trifluoromethyl-cyclopropyl)-phenyl]-acetamide] | 0.096
27 | O=C(Cc1ccc(N2CCC(F)(F)C2)nc1)Nc1cnn(Cc2ccc(OC(F)(F)F)c(F)c2)n1 [Example 189, 2-[6-(3,3-Difluoro-pyrrolidin-1-yl)-pyridin-3-yl]-N-[2-(3-fluoro-4-trifluoromethoxy-benzyl)-2H-[1,2,3]triazol-4-yl]-acetamide] | 0.017
28 | CCn1ncc2cc(CC(=O)Nc3cnn(Cc4ccc(OC(F)(F)F)c(F)c4)n3)ccc21 [Example 190, 2-(1-Ethyl-1H-indazol-5-yl)-N-[2-(3-fluoro-4-trifluoromethoxy-benzyl)-2H-[1,2,3]triazol-4-yl]-acetamide] | 0.014
29 | Cc1nn(C)c2ccc(CC(=O)Nc3cnn(Cc4ccc(OC(F)(F)F)c(F)c4)n3)cc12 [Example 191, 2-(1,3-Dimethyl-1H-indazol-5-yl)-N-[2-(3-fluoro-4-trifluoromethoxy-benzyl)-2H-[1,2,3]triazol-4-yl]-acetamide] | 0.011
30 | O=C(Cc1ccc(N2CCCC2)nc1)Nc1cnn(Cc2ccc(OC(F)(F)F)c(F)c2)n1 [Example 192, N-[2-(3-Fluoro-4-trifluoromethoxy-benzyl)-2H-[1,2,3]triazol-4-yl]-2-(6-pyrrolidin-1-yl-pyridin-3-yl)-acetamide] | 0.023
31 | N#Cc1ccc(Cn2ncc(NC(=O)Cc3ccc(OCC4(F)COC4)cc3)n2)cc1 [Example 194, N-[2-(4-Cyano-benzyl)-2H-[1,2,3]triazol-4-yl]-2-[4-(3-fluoro-oxetan-3-ylmethoxy)-phenyl]-acetamide] | 0.34
32 | N#Cc1ccc(Cn2ncc(NC(=O)Cc3ccc(C4(C(F)(F)F)CC4)cc3)n2)cc1 [Example 195, N-[2-(4-Cyano-benzyl)-2H-[1,2,3]triazol-4-yl]-2-[4-(1-trifluoromethyl-cyclopropyl)-phenyl]-acetamide] | 0.063
33 | N#Cc1ccc(Cn2ncc(NC(=O)Cc3ccc(OC4CC(F)(F)C4)cc3)n2)cc1 [Example 196, N-[2-(4-Cyano-benzyl)-2H-[1,2,3]triazol-4-yl]-2-[4-(3,3-difluoro-cyclobutoxy)-phenyl]-acetamide] | 0.041
34 | CC1(COc2ccc(CC(=O)Nc3cnn(Cc4ccc(C#N)cc4)n3)cc2)CC(F)(F)C1 [Example 197, N-[2-(4-Cyano-benzyl)-2H-[1,2,3]triazol-4-yl]-2-[4-(3,3-difluoro-1-methyl-cyclobutylmethoxy)-phenyl]-acetamide] | 0.052
35 | N#Cc1ccc(Cn2ncc(NC(=O)Cc3ccc(C4(F)COC4)cc3)n2)cc1 [Example 198, N-[2-(4-Cyano-benzyl)-2H-[1,2,3]triazol-4-yl]-2-[4-(3-fluoro-oxetan-3-yl)-phenyl]-acetamide] | 0.13
